Key:
[1] = system: SM1 tumors; assay: Anti-PD1 ± L-fucose, SM1 (BRAF-mutant) model in C57BL/6 mice; type: in vivo, mouse
Description: Fucosylation of HLA-DRB1 occurs on amino acid N48 (mutation to G abolishes interaction with fucose-binding AAL, lectin) (FIG. 9A). […] To further investigate the efficacy of the combination therapy of L-fucose and anti-PD1 and to see if the combination of L-fucose and anti-PD1 improved the efficacy of either agent alone, two mouse melanoma mouse models were used. The first was the NRAS-mutant melanoma mouse model. Here, C3H mice were pretreated with anti-PD1 and/or L-fucose or a L-fucose pre-dose followed by anti-PD1 antibody (FIG. 11). […] Using a BRAF-mutant melanoma model, the efficacy of the combination therapy was more pronounced. Here C57BL6 mice were challenged with SMI cells (FIG. 11). 7 days post challenge, mice received either a control, anti-PD1, L-fucose, or L-fucose and anti-PD1.
SW1 or SM1 mouse melanoma cells were injected into syngeneic C3H/HeN female or C57BL/6 male mice, respectively. After approximately 7 days, when the mice tumors reached ˜150 mm^3, the mice were either supplemented with or without 100 mM L-fucose (Biosynth (Oak Terrace, IL)) via drinking water, which was provided ad libitum. Simultaneously, the mice were injected either with PBS (control) or anti-PD1 (20 mg/kg, clone RMP1-14, Bioxcell (West Lebanon, NH)) every 3-4 days until endpoint. When the tumors reached ˜2 cm^3, the animals were sacrificed.

[2] = system: SW1 tumors; assay: SW1/C3H/HeJ model, L-fucose with anti-CTLA4 or anti-PD1 (FIG. 10); type: in vivo, mouse; conditions: oral L-fucose 100 mM from day 14
Method: FIGS. 10A and 10B show Oral L-fucose is more tumor suppressive than α-CTLA4 or α-PD1 alone, beginnings of improved effects. SW1 tumor growth curves in mice fed ±100 mM L-fucose treated with either control (PBS) or […] (10A) or α-PD1 (10B). Combinations are color-coded as indicated. N=8 mice per condition. L-fucose was administered in the water starting on day 14 (refreshed twice weekly); α-CTLA4 or α-PD1 was administered (20 mg/kg each) twice weekly starting day 14.

[3] = system: MDSCs; assay: IFNγ of T cells co-cultured with pre-treated MDSCs; type: cell-based, BalbC mice; conditions: CD3/CD28 bead activation
Description: Shown are IFNγ production/secretion levels of combined bulk CD4^+ and CD8^+ T cells from BalbC mice treated with either DMSO (black column) or L-fucose (red column) or co-cultured with MDSCs pre-treated with DMSO (aquamarine column) or with L-fucose (purple column). The T cells were activated using CD3/CD28 beads.

[4] = system: Leukocyte Adhesion Deficiency II; conditions: L-fuc supplementation; cited from earlier work

For `C[C@H](O)[C@@H](O)[C@@H](O)[C@H](O)C=O` [L-fucose], the tumor growth suppressed ([1]; for 21 days) was > 50%, the “tumor suppression compared with anti-PD1” value ([1]; single agents) was “less effective than anti-PD1” and the “suppression of melanoma growth compared with checkpoint antibodies” value [2] was “more significantly than anti-CTLA4 or anti-PD1 alone”. The “MDSC-mediated suppression of T cell IFNγ production/secretion” value [3] was “completely reverts MDSC-mediated T cell suppression”, the co-morbidities [4] was “without significant co-morbidities” and the “symptoms of the disorder” value [4] was “can be mitigated”.

Reference: patent publication US12642809B2, “Fucosylation and immune modulation in cancer” (H. LEE MOFFITT CANCER CENTER AND RESEARCH INSTITUTE, INC., priority 2019, dated 2026)
